Experimental data as given in patent publication US20040157902A1, “Integrin antagonists” (priority 2001, published 2004).

Assay: partition coefficient octanol/water at pH 7.4 (logD(7.4))
Assay type: physicochemical
Excerpt: If an active ingredient is introduced into an octanol/water mixture, it partitions between the two phases at a given pH in accordance with its lipophilicity/hydrophilicity. The ratio of the partitioning of the active ingredient between the octanol and water phases is known as the partition coefficient. Absorption of active ingredients requires that they both dissolve in aqueous media and also pass through the corresponding membranes. For the latter, a certain lipophilicity of the active ingredient is necessary. The requisite lipophilicity arises from the lipophilicity of the respective membrane. Thus, absorption in the intestine requires a logD value of >−1.50 and passage through the blood-brain barrier requires a logD value of >0.5 (Lipinski C. A: Adv. Drug Del. Rev. 23 (1997), 3-25). A favourable logD value is an essential prerequisite for absorption of an active ingredient.
logD values given above and below are partition coefficients of the compounds in question octanol/water at a pH of 7.4 (logD(7.4)).

| logD | SMILES |
| --- | --- |
| -0.38 | CS(=O)(=O)NC(=O)CC(NC(=O)CNC(=O)CCCCNc1ccccn1)c1ccc(-c2ccccc2)cc1 (stereo not drawn) [EMD 387 803] |
| 6.52 | O=C(CCCCNc1ccccn1)NCC(=O)NC(Cc1nnn[nH]1)c1ccc(-c2ccccc2)cc1 (stereo not drawn) [EMD 389 889, N-[1-biphenyl-4-yl-2-(1H-tetrazol-5-yl)ethyl]-2-[5-(pyridin-2-ylamino)pentanoylamino]-acetamide] |
| 6.19 | O=C(CNC(=O)NCCCNc1ccccn1)NC(Cc1nnn[nH]1)c1ccc(-c2ccccc2)cc1 (stereo not drawn) [EMD 387 890, N-[1-biphenyl-4-yl-2-(1H-tetrazol-5-yl)ethyl]-2-{3-[3-(pyridin-2-ylamino)propyl]ureido}acetamide] |
